Results as given in patent US11111259B2, “Acylsulfonamide derivatives for treating senescence-associated diseases and disorders” (Unity Biotechnology, Inc., priority 2015, dated 2021).

Experiments:
[1] = test system: IMR-90 SnC (irradiated senescent IMR90 cells); experiment: Senolysis assay (CellTiter-Glo viability); assay type: cell-based, human; conditions: for EC50: Homo sapiens, IMR-90, light or radiation study, 72 h, X-ray irradiated senescent IMR90 cells, viability three days after compound addition; for SI (ratio of EC50 of non-senescent cells to EC50 of senescent cells): IMR90 non-senescent vs senescent cells
Procedure: IMR90 cells are maintained in DMEM supplemented with 10% FBS. To prepare a senescent population, cells were trypsinized, diluted to 50,000 per mL, and irradiated with 10-15 Gy of X-ray irradiation. Irradiated cells were plated at 5000 cells per well in one third of a 96-well plate and maintained for two weeks prior to the assay. Four days prior to the assay, non-senescent IMR90s were plated at 2500 per well in the second third of the plate. One day prior to the assay, 2500 non-senescent cells were plated in the final third of the plate. Compounds were prepared as a 200×DMSO dilution series then diluted to 1× in media immediately before adding to cells. Three days after compound addition, cell viability was measured using CellTiter-Glo reagent from Promega. Viability was calculated relative to a DMSO control and EC50 values are calculated in Prism GraphPad. […] The selectivity (SI) of the compounds described herein is a ratio of the EC50 of non-senescent cells to the EC50 of senescent cells. The SI of the compounds described herein is 10 or above for “A” selectivity, between 2 and 10 for “B” selectivity or 2 or less for “C” selectivity.

[2] = target: BCL-xL (Homo sapiens, UniProt Q07817); experiment: BCL-binding assay (AlphaLISA competition, BAD peptide); conditions: 6xHis BCL-xL with biotinylated BAD peptide, 24 hr incubation
Chain of BCL-xL (Q07817 whole entry, species assumed): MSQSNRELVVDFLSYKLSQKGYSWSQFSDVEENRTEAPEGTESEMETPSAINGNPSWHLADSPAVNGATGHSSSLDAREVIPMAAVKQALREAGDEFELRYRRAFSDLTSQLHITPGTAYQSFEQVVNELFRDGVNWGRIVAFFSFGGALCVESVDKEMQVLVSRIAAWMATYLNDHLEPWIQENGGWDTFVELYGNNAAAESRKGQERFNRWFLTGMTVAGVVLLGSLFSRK
Procedure: (§1) Compounds were prepared as 400× DMSO stock solutions in a 1:4 dilution series then diluted […] in assay buffer (25 mM HEPES pH 7.5, 100 mM NaCl, 0.1% BSA, 0.005% Tween) immediately before use. Aliquots of 400 nM 6xHis-tagged BCL-xL, BCL-2, and BCL-w were thawed on ice and diluted to 0.4 (BCL-XL) or 0.8 (BCL-W and 2) nM in assay buffer. Aliquots of biotinylated BIM and BAD peptides were diluted in assay buffer to 120 and 60 nM respectively. Ten microliters of biotinylated peptide were added to wells of a 96-well PCR plate, followed by ten microliters of inhibitor, then ten microliters of BCL protein, BCL-XL with BAD and BCL-W/2 with BIM. The plates were sealed and incubated at room temperature. After 24 hr, 0.16 μg Anti-His conjugated AlphaLISA acceptor beads were added in 5 μL assay buffer. After one hour at room temperature, 0.16 μg AlphaScreen streptavidin donor beads were added in 5 μL assay buffer and plates were incubated an additional 30 min in the dark. Two 17 μL aliquots of each reaction were plated in a Perkin Elmer 384-well proxiplate, and plates were scanned for using a Perkin Elmer Enspire plate reader. Kd values were calculated in Prism Graph Pad using a one site competitive binding model and previously determined Kd values for each protein peptide pair. […]

[3] = target: BCL-2 (Homo sapiens, UniProt P10415); experiment: BCL-binding assay (AlphaLISA competition, BIM peptide); conditions: 6xHis BCL-2 with biotinylated BIM peptide, 24 hr incubation
Chain of BCL-2 (P10415 whole entry, species assumed): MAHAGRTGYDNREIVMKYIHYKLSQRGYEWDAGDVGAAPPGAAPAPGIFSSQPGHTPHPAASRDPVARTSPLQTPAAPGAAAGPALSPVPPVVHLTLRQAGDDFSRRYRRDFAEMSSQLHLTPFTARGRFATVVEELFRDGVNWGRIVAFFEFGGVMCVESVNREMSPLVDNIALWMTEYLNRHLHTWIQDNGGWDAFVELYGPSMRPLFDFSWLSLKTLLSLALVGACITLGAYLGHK
Procedure: as §1

[4] = target: T1, BCL-w (Homo sapiens, UniProt Q92843); experiment: as above; conditions: 6xHis BCL-w with biotinylated BIM peptide, 24 hr incubation
T1 sequence (Q92843 1-193): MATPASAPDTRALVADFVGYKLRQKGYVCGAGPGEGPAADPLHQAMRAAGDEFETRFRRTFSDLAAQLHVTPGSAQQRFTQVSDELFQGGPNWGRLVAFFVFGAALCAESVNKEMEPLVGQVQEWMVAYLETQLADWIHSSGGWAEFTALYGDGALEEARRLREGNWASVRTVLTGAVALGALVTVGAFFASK
Procedure: as §1

| Structure (SMILES) | EC50 [1] [nM] | Kd [2] [nM] | Kd [3] [nM] | Kd [4] [nM] | SI (ratio of EC50 of non-senescent cells to EC50 of senescent cells) [1] |
| --- | --- | --- | --- | --- | --- |
| CC1(C)CCC(c2ccc(Cl)cc2)=C(CN2CCN(c3ccc(C(=O)NS(=O)(=O)c4ccc(N[C@H](CCN5CCC(CP(=O)(OCOC(=O)C(C)(C)C)OCOC(=O)C(C)(C)C)CC5)CSc5ccccc5)c(S(=O)(=O)C(F)(F)F)c4)cc3)CC2)C1 [Compound 46] | > 10000 | 1 to 10 | 1 to 10 | > 50 | – |
| CC1(C)CCC(c2ccc(Cl)cc2)=C(CN2CCN(c3ccc(C(=O)NS(=O)(=O)c4ccc(N[C@H](CCN5CCC(CP(=O)(O)O)CC5)CSc5ccccc5)c(S(=O)(=O)C(F)(F)F)c4)cc3)CC2)C1 [Compound 47] | > 10000 | < 1 | < 1 | 1 to 10 | – |
| CCOP(=O)(CC1CCN(CC[C@H](CSc2ccccc2)Nc2ccc(S(=O)(=O)NC(=O)c3ccc(N4CCN(CC5=C(c6ccc(Cl)cc6)CCC(C)(C)C5)CC4)cc3)cc2S(=O)(=O)C(F)(F)F)CC1)OCOC(=O)C(C)(C)C (stereo partly drawn) [Compound 48, (((1-((R)-3-((4-(N-(4-(4-((4′-chloro-4,4-dimethyl-3,4,5,6-tetrahydro-[1,1′-biphenyl]-2-yl)methyl)piperazin-1-yl)benzoyl)sulfamoyl)-2-((trifluoromethyl)sulfonyl)phenyl)amino)-4-(phenylthio)butyl)piperidin-4-yl)methyl)(ethoxy)phosphoryl)oxy)methyl pivalate] | < 1000 | < 1 | < 1 | 1 to 10 | A (10 or above) |
| CCOP(=O)(CN1CCN(CC[C@H](CSc2ccccc2)Nc2ccc(S(=O)(=O)NC(=O)c3ccc(N4CCN(Cc5ccccc5-c5ccc(Cl)cc5)CC4)cc3)cc2S(=O)(=O)C(F)(F)F)CC1)OCC [Compound 51, Diethyl (R)-((4-(3-((4-(N-(4-(4-((4′-chloro-[1,1′-biphenyl]-2-yl)methyl)piperazin-1-yl)benzoyl)sulfamoyl)-2-((trifluoromethyl)sulfonyl)phenyl)amino)-4-(phenylthio)butyl)piperazin-1-yl)methyl)phosphonate] | 1000 to 10000 | < 1 | < 1 | 1 to 10 | B (between 2 and 10) |
| CCOP(=O)(O)CN1CCN(CC[C@H](CSc2ccccc2)Nc2ccc(S(=O)(=O)NC(=O)c3ccc(N4CCN(Cc5ccccc5-c5ccc(Cl)cc5)CC4)cc3)cc2S(=O)(=O)C(F)(F)F)CC1 [Compound 53, Ethyl hydrogen ((4-((R)-3-((4-(N-(4-(4-((4′-chloro-[1,1′-biphenyl]-2-yl)methyl)piperazin-1-yl)benzoyl)sulfamoyl)-2-((trifluoromethyl)sulfonyl)phenyl)amino)-4-(phenylthio)butyl)piperazin-1-yl)methyl)phosphonate] | > 10000 | < 1 | < 1 | < 1 | – |
| CCOP(=O)(CN1CCN(CC[C@H](CSc2ccccc2)Nc2ccc(S(=O)(=O)NC(=O)c3ccc(N4CCN(Cc5ccccc5-c5ccc(Cl)cc5)CC4)cc3)cc2S(=O)(=O)C(F)(F)F)CC1)OCOC(=O)C(C)(C)C (stereo partly drawn) [Compound 54, (((4-((R)-3-((4-(N-(4-(4-((4′-chloro-[1,1′-biphenyl]-2-yl)methyl)piperazin-1-yl)benzoyl)sulfamoyl)-2-((trifluoromethyl)sulfonyl)phenyl)amino)-4-(phenylthio)butyl)piperazin-1-yl)methyl)(ethoxy)phosphoryl)oxy)methyl pivalate] | 1000 to 10000 | < 1 | < 1 | 1 to 10 | B (between 2 and 10) |
| CCOP(=O)(CN1CCN(CC[C@H](CSc2ccccc2)Nc2ccc(S(=O)(=O)NC(=O)c3ccc(N4CCN(Cc5ccccc5-c5ccc(Cl)cc5)CC4)cc3)cc2S(=O)(=O)C(F)(F)F)CC1)OCOC(=O)OC(C)C (stereo partly drawn) [Compound 56, (((4-((R)-3-((4-(N-(4-(4-((4′-chloro-[1,1′-biphenyl]-2-yl)methyl)piperazin-1-yl)benzoyl)sulfamoyl)-2-((trifluoromethyl)sulfonyl)phenyl)amino)-4-(phenylthio)butyl)piperazin-1-yl)methyl)(ethoxy)phosphoryl)oxy)methyl isopropyl carbonate] | > 10000 | < 1 | < 1 | 1 to 10 | – |
